# In patent US20070043082A1, “Use of antimuscarinic drugs” (priority 2005, published 2007):
# “Also recorded” adds a separate entry of the source.
# Assays:
# [1] = system: status epilepticus; test: induction of status epilepticus by systemic pilocarpine; format: in vivo, Wistar rats; details: pilocarpine 320 mg/Kg intraperitoneal; average
# From the text: (§1) Biperiden, together with atropine, is a classic […] and is known to block muscarinic receptors. These drugs are known by their abilities in blocking the cholinergic transmission which is otherwise mediated through muscarinic receptors. For our experiments we used Wistar, adult, male, rats which were maintained under controlled conditions of temperature, light/dark cycles and kept in groups of up to 6 animals in polypropilene boxes with free access to tap water and rat chow pellets. Rats were subject to the intraperitoneal administration of pilocarpine in a dose of 320 mg/Kg for the induction of status epilepticus.
# As expected, the systemic administration of pilocarpine lead to a sequence of behavioral alterations such as akinesia, body tremor and/or myoclonic jerks of the head and oro-facial stereotyped movements accompanied by profuse salivation. Status epilepticus, a condition of uninterrupt epileptic seizure, developed on average 19±5 min after the injection of pilocarpine. Three hours after the onset of status epilepticus the animals in the experimental group (n=10) were intraperitoneally injected with the first initial dose of biperiden (8 mg/kg). […]
# [2] = system: spontaneous recurrent epileptic seizures (pilocarpine model of epilepsy); test: pilocarpine model of epilepsy in rats: video monitoring of spontaneous epileptic seizures after status epilepticus; format: in vivo, Wistar rats
# From the text: The current invention was based on an experimental model of epilepsy in which in rats the induction of a brain lesion is accomplished through the administration of pilocarpine, a cholinergic agonist. According to the original description of this model, approximately 20-30 days after pilocarpine injection in either rats or mice, there is the onset of spontaneous recurrent epileptic seizures (Turski W A, Cavalheiro E A, Schwarz M, Czuczwar S J, Kleinrok Z and Turski L. Limbic seizures produced by pilocarpine in rats: behavioural, electroencephalographic and neuropathological study. Behavioral Brain Research, 9:315-335, 1983; Mello L E A M, Cavalheiro E A, Babb T L, Kupfer W R, Pretorius J K, Tan A M and Finch D M. Circuit mechanisms of seizures in the pilocarpine model of chronic epilepsy: cell loss and mossy fiber sprouting. Epilepsia 34:985-995, 1993). Due to its special features the pilocarpine model is currently one of the 3 most widely used experimental models in the study of epilepsy.
# as §1
# As expected, the systemic administration of pilocarpine lead to a sequence of behavioral alterations such as akinesia, body tremor and/or myoclonic jerks of the head and oro-facial stereotyped movements accompanied by profuse salivation. Status epilepticus, a condition of uninterrupt epileptic seizure, developed on average 19±5 min after the injection of pilocarpine. Three hours after the onset of status epilepticus the animals in the experimental group (n=10) were intraperitoneally injected with the first initial dose of biperiden (8 mg/kg). This dose represents the concentration needed to provoke memory impairments in rodents, (Roldan G, Bolanos-Badillo E, Gonzales-Sanches H, Quirarte G L and Prado-Alcala R A J W. Selective M1 muscarinic receptor antagonists disrupt memory consolidation of inhibitory avoidance in rats. Neurosci. Lett., 230:93-6, 1997).
# For the animals in the control group (n=6), […] after the onset of status epileticus, administration of sterile saline solution (0.9% NaCl), rather than biperiden, was started with a similar protocol.
# In the pilocarpine model of epilepsy, a few weeks after the administration of pilocarpine and the induction of status epilepticus, the animals develop spontaneous epileptic seizures which recur for as long as the animal are allowed to live. It is assumed that such epileptic condition adequately mimics some types of epileptic seizures in humans and may closely reflect the sequence of events that take place in post-traumatic epilepsies.
# Approximately 15 to 20 days after the induction of status epilepticus, the reported duration of the latent period for the onset of spontaneous seizures, monitoring of the behavioral seizures with a videocamera for approximately 12 hours/week was initiated. Based on our initial hypothesis, that the experimental group (treated with biperiden) would either have a substantial reduction or would show no spontaneous epileptic seizures, and therefore to avoid a false negative result, the sampling rate for video monitoring of these animals was performed for 24 hours/week. Animals were video monitored for approximately 120 days after the induction of status epilepticus. The recorded video tapes were routinely assessed in a 29 inches wide television screen and the seizures observed for each animal were recorded.
# [3] = species and source not stated; cited from earlier work
Structure (SMILES),time to development of status epilepticus after injection [1] [min],"Length of the latent period for the onset of the first recorded spontaneous epileptic seizure, Latency ([2]; biperiden 8 mg/kg i.p. every 8 hours for 10 days, started 3 h after onset of status epilepticus, n=10, mean ± standard deviation, p < 0.03 vs control (Mann-Whitney)) [weeks]","Frequency of spontaneous epileptic seizures, Spontaneous seizures/h ([2]; biperiden 8 mg/kg i.p. every 8 hours for 10 days, n=10, monitored about 120 days, mean ± standard deviation, p < 0.02 vs control (Mann-Whitney)) [seizures/h]",frequency of epileptic seizures in animals that developed seizures (in words) ([2]; compared to animals not treated with biperiden),mean frequency of spontaneous epileptic seizures of the control group relative to the experimental group ([2]; control (saline) vs experimental (treated with biperiden)) [times],"qualitative or quantitative nature of each individual seizure, difference between the two groups ([2]; experimental (biperiden) vs control)",mean latency of the experimental group relative to the control group ([2]; experimental (biperiden) vs control (saline)),"onset of spontaneous recurrent seizures, i.e., epilepsy (in words) ([2]; prophylactic use after pilocarpine lesion)",half-life [3] [h]
CC[C@@H]1C(=O)OC[C@@H]1Cc1cncn1C [pilocarpine],19 ± 5,–,–,–,–,–,–,–,–
OC(CCN1CCCCC1)(c1ccccc1)C1CC2C=CC1C2 (stereo not drawn) [biperiden],–,6.0±1.1,0.0202 ± 0.0047,significantly lesser frequency,2,no differences,two times greater; also recorded: twice that of the control group,significantly retarded or even suppressed,24 ± 1.2
